Reference: ChEMBL document CHEMBL4414666, “Structure-Activity Relationships of Pentacyclic Triterpenoids as Inhibitors of Cyclooxygenase and Lipoxygenase Enzymes” (J Nat Prod, 2019)

Key:
[1] = target: T1, Polyunsaturated fatty acid 5-lipoxygenase (Homo sapiens) (UniProt P09917); assay: Inhibition of human recombinant 5-LOX expressed in insect cells assessed residual activity using arachidonic acid at 42 uM as substrate preincubated for 5 mins followed by substrate addition measured after 20 mins in dark by ferric ion oxidation-xylenol orange method relative to control
T1 sequence (whole entry): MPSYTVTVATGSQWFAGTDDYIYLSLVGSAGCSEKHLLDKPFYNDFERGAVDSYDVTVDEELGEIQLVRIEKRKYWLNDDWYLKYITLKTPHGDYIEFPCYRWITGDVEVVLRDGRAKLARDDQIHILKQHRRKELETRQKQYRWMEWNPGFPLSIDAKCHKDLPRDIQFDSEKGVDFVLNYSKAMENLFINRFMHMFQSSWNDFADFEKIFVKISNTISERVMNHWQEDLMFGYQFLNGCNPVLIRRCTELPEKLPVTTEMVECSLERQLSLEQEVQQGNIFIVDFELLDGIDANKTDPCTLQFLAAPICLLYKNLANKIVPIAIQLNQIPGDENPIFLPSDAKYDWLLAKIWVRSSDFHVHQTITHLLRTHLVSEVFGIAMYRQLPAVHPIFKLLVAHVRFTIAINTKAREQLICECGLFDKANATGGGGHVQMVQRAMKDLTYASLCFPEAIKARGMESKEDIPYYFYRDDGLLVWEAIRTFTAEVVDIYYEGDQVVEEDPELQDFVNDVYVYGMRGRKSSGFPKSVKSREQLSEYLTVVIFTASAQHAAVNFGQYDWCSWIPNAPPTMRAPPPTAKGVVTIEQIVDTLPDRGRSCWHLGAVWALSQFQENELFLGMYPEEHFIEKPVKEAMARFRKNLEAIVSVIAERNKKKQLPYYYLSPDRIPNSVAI

[2] = target: T2, Prostaglandin G/H synthase 2 (Homo sapiens, UniProt P35354); assay: biochemical; assay type: cell-based, Sf21;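 also: recombinant enzyme produced in baculovirus-infected Sf21 cells, arachidonic acid substrate, PGE2 output quantified by LC-MS after 45 min, compounds preincubated 10 min beforehand, lower PGE2 means inhibition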
T2 sequence (P35354 whole entry): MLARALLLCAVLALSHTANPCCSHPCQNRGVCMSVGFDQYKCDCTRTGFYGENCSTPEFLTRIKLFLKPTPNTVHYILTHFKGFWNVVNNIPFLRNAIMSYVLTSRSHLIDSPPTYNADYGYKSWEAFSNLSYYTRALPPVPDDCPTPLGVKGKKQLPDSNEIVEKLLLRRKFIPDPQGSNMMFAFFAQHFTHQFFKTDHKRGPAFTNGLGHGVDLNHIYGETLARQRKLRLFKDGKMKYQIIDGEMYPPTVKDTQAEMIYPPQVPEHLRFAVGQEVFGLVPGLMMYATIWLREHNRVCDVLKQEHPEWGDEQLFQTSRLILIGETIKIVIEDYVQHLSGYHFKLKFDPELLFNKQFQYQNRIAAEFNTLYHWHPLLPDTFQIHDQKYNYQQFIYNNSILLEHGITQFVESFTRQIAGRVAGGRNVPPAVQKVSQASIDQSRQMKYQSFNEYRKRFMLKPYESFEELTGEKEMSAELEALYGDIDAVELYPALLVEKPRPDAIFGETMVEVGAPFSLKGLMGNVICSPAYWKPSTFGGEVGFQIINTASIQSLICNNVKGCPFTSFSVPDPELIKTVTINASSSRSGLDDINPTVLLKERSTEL
Description: Inhibition of human recombinant COX2 expressed in baculovirus infected sf21 cells assessed as decrease in PGE2 formation using arachidonic acid as substrate preincubated for 10 mins followed by substrate addition measured after 45 mins by LC-MS analysis

[3] = target: T3, Polyunsaturated fatty acid lipoxygenase ALOX15B (Homo sapiens, UniProt O15296); assay: (§1) Inhibition of human recombinant N-terminal His-tagged 15-LOX2 expressed in Escherichia coli using arachidonic acid as substrate preincubated for 5 mins followed by substrate addition measured after 20 mins in dark by ferric ion oxidation-xylenol orange assay
T3 sequence (O15296 whole entry): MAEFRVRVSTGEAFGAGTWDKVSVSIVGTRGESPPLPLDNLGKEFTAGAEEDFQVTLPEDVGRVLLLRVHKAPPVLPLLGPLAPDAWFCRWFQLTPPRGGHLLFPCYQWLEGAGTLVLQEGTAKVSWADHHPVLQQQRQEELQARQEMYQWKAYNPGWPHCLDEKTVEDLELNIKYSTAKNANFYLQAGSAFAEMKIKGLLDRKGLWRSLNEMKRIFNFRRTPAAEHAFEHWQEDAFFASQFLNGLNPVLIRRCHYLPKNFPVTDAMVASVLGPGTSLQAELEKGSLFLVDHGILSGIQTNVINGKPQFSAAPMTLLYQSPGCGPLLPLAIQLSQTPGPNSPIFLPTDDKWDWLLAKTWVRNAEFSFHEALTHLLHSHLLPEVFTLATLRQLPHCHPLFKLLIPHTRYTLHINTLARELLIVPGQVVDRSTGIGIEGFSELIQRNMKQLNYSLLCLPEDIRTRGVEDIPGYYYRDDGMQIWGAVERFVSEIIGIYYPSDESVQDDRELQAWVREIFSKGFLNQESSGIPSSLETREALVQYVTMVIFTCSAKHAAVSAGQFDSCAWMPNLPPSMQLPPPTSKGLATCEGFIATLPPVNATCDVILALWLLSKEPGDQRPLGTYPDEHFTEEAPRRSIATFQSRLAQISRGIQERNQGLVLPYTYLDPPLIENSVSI

[4] = target: T4, Polyunsaturated fatty acid 5-lipoxygenase (Homo sapiens, UniProt P09917); assay: Inhibition of human recombinant 5-LOX expressed in insect cells assessed as decrease in production of 5-HPETE and 5-HETE using arachidonic acid as substrate preincubated for 5 mins followed by substrate addition measured after 20 mins in dark by ferric ion oxidation-xylenol orange method
T4 sequence (P09917 whole entry): T1 sequence (whole entry)

[5] = target: T5, Polyunsaturated fatty acid lipoxygenase ALOX15B (Homo sapiens) (UniProt O15296); assay: as §1, with “coli assessed as residual activity at 42 uM” for “coli”, “assay relative to control” for “assay”
T5 sequence (whole entry): T3 sequence (O15296 whole entry)

| SMILES | Activity [1] [%] | IC50 ([2]; read-out: IC50) [µM] | IC50 [3] | IC50 ([4]; read-out: IC50) [µM] | Activity [5] [%] | IC50 [4] | IC50 ([3]; read-out: IC50) [µM] | IC50 ([2]; sf21) |
| --- | --- | --- | --- | --- | --- | --- | --- | --- |
| CC(=O)O[C@@H]1CC[C@@]2(C)[C@@H](CC[C@]3(C)[C@@H]2CC=C2[C@@H]4CC(C)(C)CC[C@]4(C)CC[C@]23C)[C@@]1(C)C(=O)O | 93.1 | > 40 | Not Active | > 40 | 100 |  |  |  |
| CC1(C)CC[C@]2(C(=O)O)CC[C@]3(C)C(=CC[C@@H]4[C@@]5(C)C[C@@H](O)[C@H](O)C(C)(C)[C@@H]5CC[C@]43C)[C@@H]2C1 [MASLINIC ACID] | 62.9 | > 40 | Not Active | > 40 | 100 |  |  |  |
| C[C@H]1[C@H](C)CC[C@]2(C(=O)O)CC[C@]3(C)C(=CC[C@@H]4[C@@]5(C)CC[C@H](O)C(C)(C)[C@@H]5CC[C@]43C)[C@H]12 [URSOLIC ACID] | 64 | > 40 |  | > 40 | 63.6 |  | > 40 |  |
| CC(=O)O[C@@H]1CC[C@@]2(C)[C@@H](CC[C@]3(C)[C@@H]2CC=C2[C@@H]4[C@@H](C)[C@H](C)CC[C@]4(C)CC[C@]23C)[C@@]1(C)C(=O)O | 69.5 | > 40 |  | > 40 | 24.9 |  | 12.2 |  |
| CC1(C)CC[C@]2(C)CC[C@]3(C)C(=CC[C@@H]4[C@@]5(C)CCC(=O)C(C)(C)[C@@H]5CC[C@]43C)[C@@H]2C1 | 100 |  | Not Active |  | 100 | Not Active |  | Not Active |
| CC1(C)[C@@H](O)CC[C@]2(C)[C@H]3CC=C4[C@@H]5C[C@@](C)(C(=O)O)CC[C@]5(C)CC[C@@]4(C)[C@]3(C)CC[C@@H]12 | 49 | > 40 | Not Active |  | 100 |  |  |  |
| C[C@H]1[C@H](C)CC[C@]2(C)CC[C@]3(C)C(=CC[C@@H]4[C@@]5(C)CC[C@@H](O)[C@](C)(C(=O)O)[C@@H]5CC[C@]43C)[C@H]12 [BOSWELLIC ACID] | 53.4 | > 40 | Not Active | > 40 | 100 |  |  |  |
| CC(Cc1ccc(O)c(O)c1)C(C)Cc1ccc(O)c(O)c1 (configuration not stated) |  |  |  |  | 31.4 |  |  |  |
| CC1(C)CC[C@]2(C)CC[C@]3(C)C(=CC[C@@H]4[C@@]5(C)CC[C@@H](O)[C@](C)(C(=O)O)[C@@H]5CC[C@]43C)[C@@H]2C1 | 48.7 | > 40 | Not Active |  | 100 |  |  |  |

The next lines start with the values.

| Activity [1] [%] | IC50 ([2]; read-out: IC50) [µM] | IC50 [3] | IC50 ([4]; read-out: IC50) [µM] | Activity [5] [%] | IC50 [4] | IC50 ([3]; read-out: IC50) [µM] | IC50 ([2]; sf21) | SMILES |
| --- | --- | --- | --- | --- | --- | --- | --- | --- |
| 61.9 | > 40 | Not Active | > 40 | 100 |  |  |  | C[C@H]1[C@H](C)CC[C@]2(C(=O)O)CC[C@]3(C)C(=CC[C@@H]4[C@@]5(C)C[C@@H](O)[C@H](O)[C@@](C)(CO)[C@@H]5CC[C@]43C)[C@H]12 [ASIATIC ACID] |
| 100 |  | Not Active |  | 100 | Not Active |  |  | CC1(C)CC[C@]2(C(=O)O)CC[C@]3(C)C(=CC[C@@H]4[C@@]5(C)CC[C@H](O)C(C)(C)[C@@H]5CC[C@]43C)[C@@H]2C1 [OLEANOLIC_ACID] |
| 66.7 | > 40 | Not Active | > 40 | 100 |  |  |  | C[C@H]1[C@H](C)CC[C@]2(C(=O)O)CC[C@]3(C)C(=CC[C@@H]4[C@@]5(C)C[C@@H](O)[C@H](O)C(C)(C)[C@@H]5CC[C@]43C)[C@H]12 [COROSOLIC ACID] |
| 47.7 | > 40 | Not Active |  | 100 |  |  |  | CC1(C)CC[C@]2(C(=O)O)CC[C@]3(C)C(=CC[C@@H]4[C@@]5(C)C[C@@H](O)[C@H](O)[C@@](C)(CO)[C@@H]5CC[C@]43C)[C@@H]2C1 [ARJUNOLIC ACID] |
